From patent publication US20110160250A1, “CRYSTALLINE FORMS OF A FACTOR XA INHIBITOR” (Millennium Pharmaceuticals, Inc., priority 2009, published 2011)
Read-outs that look alike come from different tables or passages of the source.

Legend:
[1] = Pharmacokinetics of Compound I in rat after intravenous and oral administration (plasma and urine LC/MS/MS, noncompartmental analysis); type: in vivo, male Sprague-Dawley rats; settings: mean ± SD; for half-life: read-out: T1/2 (terminal half-life) (converted); for Vd: iv
Procedure: (§1) The following experiments were conducted using samples of Compound I prepared by a method disclosed in U.S. Pat. No. 7,763,608, which is incorporated by reference in its entirety.
Compound I was used in the rat investigation. An intravenous (IV) and oral (PO) dose of Compound I (1.0 and 10 mg/kg, respectively) was prepared. The IV dose was solubilized in 50% PEG300 to yield a final concentration of 1.0 mg/mL with a final pH of 5.13. The PO dose was suspended in 0.5% methylcellulose at a concentration of 2.0 mg/mL with a final pH of 2.70.
(§2) A total of six male Sprague-Dawley rats (n=3/dosing group) from Charles River Laboratories (Hollister, Calif.), three male beagle dogs from Marshall BioResources (North Rose, N.Y.) and three male rhesus monkeys were utilized. All surgical procedures in rat (femoral and jugular vein catheterizations) were performed 8 days prior to utilization in the study and rats were acclimated in-house 5 days prior to utilization. Dogs were acclimated in-house at least seven days prior to utilization and were returned to the colony at the completion of the study. Monkey studies were conducted by an off-site contract laboratory.
(§3) All animals were fasted from the afternoon prior to study initiation to two hours post-dose (approximately 18 hours). Water was provided ad libitum. All animal rooms were on a 12 hour light-dark cycles (6 A.M. to 6 P.M.). On the morning of experimentation, animals were weighed. Rat femoral and jugular (IV only) vein blood lines were exteriorized and attached to access ports. Dogs were weighed and shaved at blood sampling and IV dosing sites (along both cephalic and saphenous veins).
(§4) All animals were dosed based on individual weights with a PO gavage volume of 5.0 mL/kg and an IV bolus dose volume of 1.0 mL/kg. Blood samples were obtained on 3.8% TSC (1:10 dilution) over a 24, 56, and 96 hour period post-dosing for the rat, dog, and monkey, respectively. Blood samples were centrifuged for platelet poor plasma, and resulting plasma was stored at −20° C. until sample analysis. Rat urine samples were collected on 200 μL of 2% boric acid from animals in the IV group at 0 (overnight), 10, and 24 hours post-dose. At collection times, urine volume and water consumption was recorded. Urine samples were stored at −20° C. until sample analysis.
(§5) Plasma and urine samples were analyzed for Compound I concentration using a liquid chromatography tandem mass spectrometry (LC/MS/MS). In brief, plasma and urine samples were processed in a 96-well Captiva™ filter plate (0.2 μm, Varian, Inc., Palo Alto, Calif.). Aliquots of plasma samples were precipitated with acetonitrile containing 500 ng/mL of N-(2-(5-chloropyridin-2-ylcarbaomoyl)-4-methoxyphenyl)-4-(N,N-dimethylcarbamimidoyl)-2-fluorobenzamide, an internal standard. Aliquots of urine samples were diluted with plasma before mixing with acetonitrile containing internal standard. The mixture was vortexed and refrigerated at 4° C. for 30 minutes to allow complete protein precipitation. The mixture was filtered into a 96-well collection plate. The filtrate was injected onto a Sciex API3000 LC/MS/MS equipped with a turbo-ion spray source. Compound I and N-(2-(5-chloropyridin-2-ylcarbaomoyl)-4-methoxyphenyl)-4-(N,N-dimethylcarbamimidoyl)-2-fluorobenzamide were separated on a Thermo Hypersil-Keystone Betasil C18 column (4.6×100 mm, 5 μm; Fisher Scientific, Houston, Tex.). A mobile phase gradient mixture of 90% mobile phase A (0.5% formic acid in water) and 10% mobile phase B (0.5% formic acid in 90% acetonitrile) to 40% mobile phase B (programmed over 2.8 minutes). The peak areas of the m/z 411→250 product ion (Compound I) were measured against those of the m/z 470→342 product ion (N-(2-(5-chloropyridin-2-ylcarbaomoyl)-4-methoxyphenyl)-4-(N,N-dimethylcarbamimidoyl)-2-fluorobenzamide) in positive ion mode. The analytical range was 0.500 to 10,000 ng/mL.
(§6) Sample Compound I concentrations below the lower limit of quantitation (LLQ) were reported as <0.500 ng/mL. […]

[2] = Pharmacokinetics of Compound I in monkey after intravenous and oral administration (plasma LC/MS/MS, noncompartmental analysis); type: in vivo, male rhesus monkeys; settings: mean ± SD; for Vd: iv
Procedure: as §1
(§7) For the dog and monkey study, Compound I was also used. An IV and PO dose of Compound I (1.0 and 5.0 mg/kg, respectively) was prepared. The IV dose was formulated similarly to that used in the rat study (50% PEG300 in water). The PO dose was suspended in 0.5% methylcellulose at a concentration of 1.0 mg/mL with a final pH of approximately 3.50.
as §2, §3, §4, §5, §6

[3] = Pharmacokinetics of Compound I in dog after intravenous and oral administration (plasma LC/MS/MS, noncompartmental analysis); type: in vivo, male beagle dogs; settings: mean ± SD; for Vd: iv
Procedure: as §1, §7, §2, §3, §4, §5, §6

[4] = male, Sprague-Dawley, plasma, intravenous, 1 mg/kg
[5] = male, Sprague-Dawley, plasma, oral, 10 mg/kg
[6] = male, rhesus, rhesus monkey, plasma, intravenous, 1 mg/kg
[7] = male, rhesus, rhesus monkey, plasma, oral, 5 mg/kg
[8] = male, beagle, plasma, intravenous, 1 mg/kg
[9] = male, beagle, plasma, oral, 5 mg/kg

Dose excreted unchanged in urine ([1]; intravenous, 1 mg/kg): 0.248 ± 0.019% | AUC [1, 4]: 5380 ± 1190 ng·h/mL | AUC(0-inf) [1, 4]: 5400 ± 1160 ng·h/mL | clearance ([1]; male, Sprague-Dawley, plasma, intravenous, 1 mg/kg, read-out: CL (systemic clearance)): 3.19 ± 0.734 mL/min/kg | half-life [1, 4]: 2.86 ± 1.4 h | Vd ([1]; male, Sprague-Dawley, plasma, 1 mg/kg, intravenous, 1 mg/kg, read-out: Vss (volume of distribution at steady-state)): 0.368 ± 0.026 L/kg | Vd ([1]; male, Sprague-Dawley, plasma, 1 mg/kg, intravenous, 1 mg/kg, read-out: Vz (volume of distribution)): 0.757 ± 0.328 L/kg | AUC [1, 5]: 68500 ± 12500 ng·h/mL | AUC(0-inf) [1, 5]: 68600 ± 12500 ng·h/mL | Cmax [1, 5]: 28900 ± 2080 ng/mL | Tmax [1, 5]: 0.25 h | half-life [1, 5]: 2.72 ± 0.29 h | AUC/D (dose-normalized AUC(0-inf)) ([1]; oral, 10 mg/kg): 6859 ± 1249 kg·h/mL | AUC [2, 6]: 12600 ± 6000 ng·h/mL | AUC(0-inf) [2, 6]: 12600 ± 6000 ng·h/mL | clearance ([2]; male, rhesus, rhesus monkey, plasma, intravenous, 1 mg/kg, read-out: CL (systemic clearance)): 1.66 ± 1.06 mL/min/kg | Vd ([2]; male, rhesus, rhesus monkey, plasma, 1 mg/kg, intravenous, 1 mg/kg, read-out: Vss (volume of distribution at steady-state)): 0.353 ± 0.059 L/kg | Vd ([2]; male, rhesus, rhesus monkey, plasma, 1 mg/kg, intravenous, 1 mg/kg, read-out: Vz (volume of distribution)): 2.31 ± 1.71 L/kg | AUC [2, 7]: 42100 ± 17200 ng·h/mL | AUC(0-inf) [2, 7]: 42200 ± 17200 ng·h/mL | Cmax [2, 7]: 6040 ± 1880 ng/mL | Tmax [2, 7]: 2 h | AUC/D (dose-normalized AUC(0-inf)) ([2]; oral, 5 mg/kg): 8430 ± 3449 kg·h/mL | AUC [3, 8]: 1620 ± 360 ng·h/mL | AUC(0-inf) [3, 8]: 1620 ± 363 ng·h/mL | clearance ([3]; male, beagle, plasma, intravenous, 1 mg/kg, read-out: CL (systemic clearance)): 10.7 ± 2.69 mL/min/kg | Vd ([3]; male, beagle, plasma, 1 mg/kg, intravenous, 1 mg/kg, read-out: Vss (volume of distribution at steady-state)): 0.843 ± 0.288 L/kg | Vd ([3]; male, beagle, plasma, 1 mg/kg, intravenous, 1 mg/kg, read-out: Vz (volume of distribution)): 2.73 ± 2.45 L/kg | AUC [3, 9]: 5460 ± 1470 ng·h/mL | AUC(0-inf) [3, 9]: 5480 ± 1480 ng·h/mL | Cmax [3, 9]: 2720 ± 474 ng/mL | Tmax [3, 9]: 0.583 ± 0.382 h | AUC/D (dose-normalized AUC(0-inf)) ([3]; oral, 5 mg/kg): 1095 ± 295 kg·h/mL
SMILES: O=C(NCc1cn(-c2ccc(-n3ccccc3=O)cc2)cn1)c1ccc(Cl)s1 [Compound I, 5-chloro-N-((1-(4-(2-oxopyridin-1(2H)-yl)phenyl)-1H-imidazol-4-yl)methyl)thiophene-2-carboxamide]
